# Results taken from patent US7795244B2, “Penem prodrugs” (priority 2006, dated 2010).
# Values joined by “and” are separate entries in the source; they are usually repeats but may differ in a detail not shown here. Equal values may be shown once. Read-outs that look alike come from different tables or passages of the source.
# How the values were obtained:
# [1] = Stability in the presence of porcine pancrelipase (PPE); format: in vitro ADME; details: pig, porcine pancrelipase (ku-zyme HP) in phosphate buffer, 50 μM substrate, pH 7.4, 37° C.
# [2] = system: porcine pancrelipase (PPE); test: as above; format: in vitro ADME; details: ku-zyme Lot 1; 50 μM substrate, pH 7.4, 37° C.
# [3] = human, pH 7.4
# [4] = Stability in human intestinal juice (HIJ); details: pooled human intestinal juice (4 subjects), buffered, pH 7.4
# Equilibrium solubility = format: physicochemical; details: aqueous buffer, thermodynamic from solid, 25 mM phosphate buffer (pH 5), ambient temperature / 25° C.
# Procedure: Vials containing excess prodrug in phosphate buffer were rotated for up to 48 hours. After the equilibrium period, samples were pulled, filtered through 0.45 μm Gelman Acrodisc Nylon syringe filter and analyzed for drug concentration using HPLC. The HPLC conditions were: Column. C18, SymmetryShield RP, Waters, 4.6×150 mm, 3.5 micron; Mobile phase A: Acetonitrile; Mobile phase B: 0.1% TFA in water; Flow rate, 1 mL/min; Run Time: 30 min Inj. vol. 20 μL; Detection: 210 nm; Dissolving solvent: Acetonitrile/water (50:50 v:v).
# K. pneumoniae 6485 = test: Murine acute systemic infection model; details: Murine acute systemic infection vs. K. pneumoniae 6485; oral BID; survival day four post-infection; repeat experiments
# [5] = humans; given orally as a mixture of two stereoisomers; Foulds et al.; cited from earlier work
# S. pneumoniae 1095 [6] = test: Murine acute systemic infection model; details: Murine acute systemic infection vs. S. pneumoniae 1095; oral BID; survival day four post-infection; repeat experiments
# H. influenzae BLNAR = test: Gerbil otitis media model; details: Gerbil otitis media vs. H. influenzae BLNAR, oral TID for two days from 18 h post-infection, bacterial levels in middle ear fluid day four, repeat experiments
# S. pneumoniae 1095 [7] = test: Murine respiratory tract infection model; details: Murine respiratory tract infection vs. S. pneumoniae 1095; oral BID for two days from 18 h post-infection; survival day ten; repeat experiments
# K. pneumoniae 1109 = test: Murine acute systemic infection model; details: Murine acute systemic infection vs. K. pneumoniae 1109; oral BID; survival day four post-infection; repeat experiments
# plasma carnitine = test: Acute model of carnitine depletion; format: in vivo; details: 200 mg/kg BID orally for 4 days, Sprague-Dawley rats, relative to vehicle control (FIG. 1)
# Procedure: Of interest was a comparison between Compound 1 and […] in terms of the prodrug side chains' tendency or lack thereof to deplete plasma carnitine following metabolism of the intact prodrug. This was evaluated in vivo using an acute model of carnitine depletion in Sprague-Dawley rats. To understand the potential impact in vivo, radiolabeled pivalic acid (Compound B1 side chain) and 2-ethylbutyric acid (Compound 1 side chain) were administered orally at a dose of 200 mg/kg BID for 4 days to two separate groups of animals. […] Doses were administered in 100 mM sodium phosphate pH 6.6 at a dose volume of 10 mL/kg. Blood samples were obtained at 24 hour intervals following initiation of the study, processed for plasma and assayed for carnitine levels by LC/MS/MS. A vehicle control consisting of oral administration of an equal volume of buffer without compound was completed as a baseline comparison.
# [8] = Pharmacokinetics of total radioactivity after single oral dose; format: in vivo, Sprague-Dawley Rats; details: single oral 200 mg/kg; rats
# Procedure: A separate study using a single 200 mg/kg dose of each radiolabeled compound (pivalic acid and […]) was completed in rats to determine systemic exposure of dose following oral administration. The oral administration route was chosen because it is expected that the majority of hydrolysis of the prodrugs will occur within the intestine prior to entering systemic circulation. Plasma samples were obtained prior to dosing and at 0.25, 0.5, 1, 4, 8, and 24 hr post-dose. Samples were quantified for radioactivity by liquid scintillation counting and the counts were converted to […] equivalents/mL. As shown in Table 5 and FIG. 2, once absorbed, radioactivity associated with 2-ethylbutyric acid is cleared 4.5 fold faster than pivalic acid, reflecting efficient metabolic processing and excretion of the compound.
# [9] = by comparison to intravenous AUCs (Table 4, Foulds et al.), cited from earlier work
structure (smiles),measurement,setting,value
CCC(CC)(CC)C(=O)OCOC(=O)C1=C(S[C@H]2CC[S@@+]([O-])C2)S[C@@H]2[C@@H]([C@@H](C)O)C(=O)N12 [Compound C],half-life at 50 µM,"[1]; pH 7.4, ku-zyme Lot 1",21.1 min
CC(C)C(=O)OCOC(=O)C1=C(S[C@H]2CC[S@@+]([O-])C2)S[C@@H]2[C@@H]([C@@H](C)O)C(=O)N12 [F],half-life at 50 µM,"[1]; pH 7.4, ku-zyme Lot 1",4.7 min
CCC(=O)OCOC(=O)C1=C(S[C@H]2CC[S@@+]([O-])C2)S[C@@H]2[C@@H]([C@@H](C)O)C(=O)N12 [X],half-life at 50 µM,"[1]; pH 7.4, ku-zyme Lot 1",4.7 min
CCCC(CCC)C(=O)OCOC(=O)C1=C(S[C@H]2CC[S@@+]([O-])C2)S[C@@H]2[C@@H]([C@@H](C)O)C(=O)N12 [O],half-life at 50 µM,"[1]; pH 7.4, ku-zyme Lot 1",8.3 min
CC(C)CC(=O)OCOC(=O)C1=C(S[C@H]2CC[S@@+]([O-])C2)S[C@@H]2[C@@H]([C@@H](C)O)C(=O)N12 [E],half-life at 50 µM,"[1]; pH 7.4, ku-zyme Lot 1",6.4 min
CC(C)CC(C)(C)C(=O)OCOC(=O)C1=C(S[C@H]2CC[S@@+]([O-])C2)S[C@@H]2[C@@H]([C@@H](C)O)C(=O)N12 [V],half-life at 50 µM,"[1]; pH 7.4, ku-zyme Lot 1",10.5 min
C[C@@H](O)[C@H]1C(=O)N2C(C(=O)OCOC(=O)CC(C)(C)C)=C(S[C@H]3CC[S@@+]([O-])C3)S[C@H]12 [W],half-life at 50 µM,"[1]; pH 7.4, ku-zyme Lot 1",7.6 min
CCCC(C)(C)C(=O)OCOC(=O)C1=C(S[C@H]2CC[S@@+]([O-])C2)S[C@@H]2[C@@H]([C@@H](C)O)C(=O)N12 [Compound I],half-life at 50 µM,"[1]; pH 7.4, ku-zyme Lot 1",14.4 min
CCC(C(=O)OCOC(=O)C1=C(S[C@H]2CC[S@@+]([O-])C2)S[C@@H]2[C@@H]([C@@H](C)O)C(=O)N12)C(C)C (stereo partly shown) [R],half-life at 50 µM,"[1]; pH 7.4, ku-zyme Lot 1",5.3 min
CC(C)C(C)(C)C(=O)OCOC(=O)C1=C(S[C@H]2CC[S@@+]([O-])C2)S[C@@H]2[C@@H]([C@@H](C)O)C(=O)N12 [N],half-life at 50 µM,"[1]; pH 7.4, ku-zyme Lot 1",11.1 min
CCC(C)C(=O)OCOC(=O)C1=C(S[C@H]2CC[S@@+]([O-])C2)S[C@@H]2[C@@H]([C@@H](C)O)C(=O)N12 (stereo partly shown) [P],PPE Half Life,[2],4.2 min
CC(=O)OCOC(=O)C1=C(S[C@H]2CC[S@@+]([O-])C2)S[C@@H]2[C@@H]([C@@H](C)O)C(=O)N12 [G],half-life at 50 µM,"[1]; pH 7.4, ku-zyme Lot 1",21.2 min
same,HIJ Clint (avg),[3],0.18 mL/min
same,Km,[4],390 µM
CCC(C)(CC)C(=O)OCOC(=O)C1=C(S[C@H]2CC[S@@+]([O-])C2)S[C@@H]2[C@@H]([C@@H](C)O)C(=O)N12 [M],half-life at 50 µM,"[1]; pH 7.4, ku-zyme Lot 1",39.4 min
"C[C@@H](O)[C@H]1C(=O)N2C(C(=O)OCOC(=O)C(C)(C)C)=C(S[C@H]3CC[S@@+]([O-])C3)S[C@H]12 [Compound B1, reference compound]",half-life at 50 µM,"[1]; pH 7.4, ku-zyme lot 2",22.5 min
same,HIJ Clint (avg),[3],0.11 mL/min
same,solubility,Equilibrium solubility,389 µg/mL
same,PD50,K. pneumoniae 6485,>100 mg/kg
same,Km,[4],29 µM
C[C@@H](O)[C@H]1C(=O)N2C(C(=O)OCOC(=O)C(C)(C)C(C)(C)C)=C(S[C@H]3CC[S@@+]([O-])C3)S[C@H]12 [S],half-life at 50 µM,"[1]; pH 7.4, ku-zyme Lot 1",6.3 min
CCCC(C)C(=O)OCOC(=O)C1=C(S[C@H]2CC[S@@+]([O-])C2)S[C@@H]2[C@@H]([C@@H](C)O)C(=O)N12 (stereo partly shown) [Q],half-life at 50 µM,"[1]; pH 7.4, ku-zyme Lot 1",4.8 min
CC(O)C1C(=O)N2C(C(=O)OCOC(=O)C(C)(C)C)=C(SC3CC[S+]([O-])C3)SC12 (stereo not shown) [sulopenem POM ester],oral bioavailability (in words),[5],orally bioavailable in humans
CCCCC(C)(C)C(=O)OCOC(=O)C1=C(S[C@H]2CC[S@@+]([O-])C2)S[C@@H]2[C@@H]([C@@H](C)O)C(=O)N12 [K],half-life at 50 µM,"[1]; pH 7.4, ku-zyme Lot 1",14.5 min
C[C@@H](O)[C@H]1C(=O)N2C(C(=O)OCOC(=O)OC3CCC(C)(C)CC3)=C(S[C@H]3CC[S@@+]([O-])C3)S[C@H]12 [Compound A],PD50,S. pneumoniae 1095 [6],9.0 mg/kg and 15.3 mg/kg
same,ED50,H. influenzae BLNAR,8.7 mg/kg
same,ED50,"H. influenzae BLNAR; Haemophilus influenzae, in Meriones unguiculatus, po",6.9 mg/kg
same,half-life at 50 µM,"[1]; pH 7.4, ku-zyme Lot 1",3.9 ± 1.1 min
same,half-life at 50 µM,"[1]; pH 7.4, ku-zyme lot 2",6.3 min
same,PD50,S. pneumoniae 1095 [7],17.8 mg/kg and 20.8 mg/kg
same,PD50,K. pneumoniae 1109,10.1 mg/kg and 15.3 mg/kg
same,HIJ Clint (avg),[3],0.38 mL/min
same,solubility,Equilibrium solubility,136 µg/mL
same,PD50,K. pneumoniae 6485,40.7 mg/kg
same,Km,[4],300 µM
CCC(CC)C(=O)O [2-ethylbutyric acid],change in plasma carnitine,plasma carnitine,statistically insignificant changes in plasma carnitine
same,"clearance of radioactivity, fold faster than pivalic acid",[8],4.5 fold
C[C@@H](O)[C@H]1C(=O)N2C(C(=O)OCOC(=O)C(C(C)(C)C)C(C)(C)C)=C(S[C@H]3CC[S@@+]([O-])C3)S[C@H]12 [Y],half-life at 50 µM,"[1]; pH 7.4, ku-zyme Lot 1",8 min
"C[C@@H](O)[C@H]1C(=O)N2C(C(=O)OCOC(=O)C(C)(C)C)=C(S[C@H]3CC[S@@+]([O-])C3)S[C@H]12 (racemic) [Compound B2, reference compound]",half-life at 50 µM,"[1]; pH 7.4, ku-zyme Lot 1",11.6 min
same,half-life at 50 µM,"[1]; pH 7.4, ku-zyme lot 2",19.6 min
same,fraction absorbed,[9]; sulopenem equivalent dose 205 mg,38.5%
same,fraction absorbed,[9]; sulopenem equivalent dose 409 mg,33.5%
same,HIJ Clint (avg),[3],0.09 mL/min
same,Km,[4],40 µM
CC(C)C(C(=O)OCOC(=O)C1=C(S[C@H]2CC[S@@+]([O-])C2)S[C@@H]2[C@@H]([C@@H](C)O)C(=O)N12)C(C)C [T],half-life at 50 µM,"[1]; pH 7.4, ku-zyme Lot 1",7.7 min
CC(C)CC(CC(C)C)C(=O)OCOC(=O)C1=C(S[C@H]2CC[S@@+]([O-])C2)S[C@@H]2[C@@H]([C@@H](C)O)C(=O)N12 [U],half-life at 50 µM,"[1]; pH 7.4, ku-zyme Lot 1",6.4 min
CCC(C)(C)C(=O)OCOC(=O)C1=C(S[C@H]2CC[S@@+]([O-])C2)S[C@@H]2[C@@H]([C@@H](C)O)C(=O)N12 [J],half-life at 50 µM,"[1]; pH 7.4, ku-zyme Lot 1",11 min
CCC(C)C(=O)OCOC(=O)C1=C(S[C@H]2CC[S@@+]([O-])C2)S[C@@H]2[C@@H]([C@@H](C)O)C(=O)N12 (stereo partly shown) [H],half-life at 50 µM,"[1]; pH 7.4, ku-zyme Lot 1",6.8 min
"CCOC(C)(C)C(=O)OCOC(=O)C1=C(S[C@H]2CC[S@@+]([O-])C2)S[C@@H]2[C@@H]([C@@H](C)O)C(=O)N12 [Compound 2, (2-Ethoxy-2-methyl-1-oxopropoxy)methyl (5R,6S)-6-[(1R)-1-hydroxyethyl]-7-oxo-3-[[(1R,3S)-tetrahydro-1-oxido-3-thienyl]thio]-4-thia-1-azabicyclo[3.2.0]hept-2-ene-2-carboxylate]",PD50,S. pneumoniae 1095 [6],7.9 mg/kg and 6.3 mg/kg and 11.0 mg/kg
same,half-life at 50 µM,"[1]; pH 7.4, ku-zyme Lot 1",19.1 min
same,PD50,S. pneumoniae 1095 [7],19.7 mg/kg and 38.5 mg/kg
same,PD50,K. pneumoniae 1109,12.5 mg/kg and 16.2 mg/kg
same,HIJ Clint (avg),[3],0.13 mL/min
same,solubility,Equilibrium solubility,2900 µg/mL
same,Km,[4],105 µM
